molecular target: T1, recombinant MARK3 enzyme (Homo sapiens, UniProt P27448); test: MARK 3 Assay (HTRF, Cdc25C biotinylated peptide substrate); assay type: biochemical; settings: 10 μM ATP, 2 hours at 25° C.
T1 construct: purchased University of Dundee
Procedure: MARK3 activity was assayed in vitro using a Cdc25C biotinylated peptide substrate (Cell Signalling Technologies). The phosphopeptide product was quantitated using a Homogenous Time-Resolved Fluorescence (HTRF) assay system (Park et al., 1999, Anal. Biochem. 269:94-104). The reaction mixture contained 50 mM HEPES/Tris-HCl, pH 7.4; 10 mM NaCl, 5 mM MgCl2, 0.2 mM NaVO4, 5 mM β-glycerol phosphate, 0.1% Tween-20, 2 mM dithiothreitol, 0.1% BSA, 10 μM ATP, 1 μM peptide substrate, and 10 nM recombinant MARK3 enzyme (University of Dundee) in a final volume of 12 μl. The buffer additionally contained protease inhibitor cocktail (Roche EDTA-free, 1 tab per 50 ml). The kinase reaction was incubated for 2 hours at 25° C., and then terminated with 3 μl Stop/Detection Buffer (50 mM HEPES, pH 7.0, 16.6 mM EDTA, 0.5M KF, 0.1% Tween-20, 0.1% BSA, 2 μg/ml SLX^ent 665 (CISBIO), and 2 μg/ml Eu^3+ cryptate label antibody (CISBIO)). The reaction was allowed to equilibrate overnight at 0° C., and relative fluorescent units were read on an HTRF enabled plate reader (e.g. TECAN GENios Pro).
Inhibitor compounds were assayed in the reaction described above to determine compound IC50s. Aliquots of compound dissolved in DMSO were added to the reaction wells in a third-log dilution series covering a range of 1 nM to 10 μM. Relative phospho substrate formation, read as HTRF fluorescence units, was measured over the range of compound concentrations and a titration curve generated.

T1 sequence (P27448 whole entry, species assumed): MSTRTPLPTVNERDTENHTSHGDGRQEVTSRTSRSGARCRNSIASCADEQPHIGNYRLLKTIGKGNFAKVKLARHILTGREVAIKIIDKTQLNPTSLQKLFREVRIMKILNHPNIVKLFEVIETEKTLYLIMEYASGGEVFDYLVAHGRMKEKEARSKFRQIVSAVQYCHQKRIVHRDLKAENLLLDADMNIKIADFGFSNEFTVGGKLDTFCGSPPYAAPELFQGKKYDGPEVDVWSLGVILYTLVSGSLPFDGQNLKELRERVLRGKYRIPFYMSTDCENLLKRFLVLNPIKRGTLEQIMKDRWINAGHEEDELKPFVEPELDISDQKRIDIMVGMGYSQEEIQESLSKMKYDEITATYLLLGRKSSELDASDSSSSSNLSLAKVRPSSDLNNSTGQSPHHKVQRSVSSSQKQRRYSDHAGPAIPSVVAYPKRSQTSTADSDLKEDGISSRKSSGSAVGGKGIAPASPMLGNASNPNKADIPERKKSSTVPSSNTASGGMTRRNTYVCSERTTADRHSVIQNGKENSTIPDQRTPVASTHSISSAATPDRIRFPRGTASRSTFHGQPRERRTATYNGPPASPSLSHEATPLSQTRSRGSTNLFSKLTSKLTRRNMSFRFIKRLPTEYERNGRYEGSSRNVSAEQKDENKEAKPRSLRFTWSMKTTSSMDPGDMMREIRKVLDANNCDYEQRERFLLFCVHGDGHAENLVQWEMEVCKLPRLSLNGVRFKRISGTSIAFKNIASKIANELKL

Row | SMILES | IC50 [nM]
1 | O=C(NCC(F)(F)F)c1cc(-c2cnn3cc(-c4ccc(N5CCOCC5)nc4)cnc23)cs1 [Example 50, 4-[6-(6-morpholin-4-ylpyridin-3-yl)pyrazolo[1,5-a]pyrimidin-3-yl]-N-(2,2,2-trifluoroethyl)thiophene-2-carboxamide] | 35
2 | O=C(NCC(F)(F)F)c1cc(-c2cnn3cc(-c4ccn(CCCN5CCC(F)(F)C5)c(=O)c4)cnc23)cs1 [Example 8, 4-(6-{1-[3-(3,3-difluoropyrrolidin-1-yl)propyl]-2-oxo-1,2-dihydropyridin-4-yl}pyrazolo[1,5-a]pyrimidin-3-yl)-N-(2,2,2-trifluoroethyl)thiophene-2-carboxamide] | 158
3 | Cn1cc(-c2cnc3c(-c4ccc(C(=O)N[C@@H]5CCCC[C@@H]5N)cc4)cnn3c2)cn1 (stereo in doubt) [Example 219, N-[2-aminocyclohexyl]-4-[6-(1-methyl-1H-pyrazol-4-yl)pyrazolo[1,5-a]pyrimidin-3-yl]benzamide] | 127
4 | Cn1cc(-c2cnc3c(-c4nc(C(=O)NCC(F)(F)F)sc4Cl)cnn3c2)cn1 [Example 205, 5-chloro-4-[6-(1-methyl-1H-pyrazol-4-yl)pyrazolo[1,5-a]pyrimidin-3-yl]-N-(2,2,2-trifluoroethyl)-1,3-thiazole-2-carboxamide] | 60
5 | O=C(NCc1nccs1)c1cc(-c2cnn3cc(-c4cccnc4)cnc23)cs1 [Example 184, 4-(6-pyridin-3-ylpyrazolo[1,5-a]pyrimidin-3-yl)-N-(1,3-thiazol-2-ylmethyl)thiophene-2-carboxamide] | 607

The next molecules have a lower IC50 than those just listed; values first:

Row | IC50 [nM] | SMILES
6 | < 0.3 | Cc1sc(C(=O)N[C@@H]2[C@H](N)CCCC2(F)F)cc1-c1cnn2cc(-c3cnn(C)c3)cnc12 [Example 202, N-[(1R,6R)-6-amino-2,2-difluorocyclohexyl]-5-methyl-4-[6-(1-methyl-1H-pyrazol-4-yl)pyrazolo[1,5-a]pyrimidin-3-yl]thiophene-2-]
7 | 4 | CC(C)[C@@H](NC(=O)c1cc(-c2cnn3cc(-c4ccc(NCC(C)(C)O)nc4)cnc23)cs1)C(F)(F)F [Example 49, 4-(6-{6-[(2-hydroxy-2-methylpropyl)amino]pyridin-3-yl}pyrazolo[1,5-a]pyrimidin-3-yl)-N-[(1R)-2-methyl-1-(trifluoromethyl)propyl]thiophene-2-carboxamide]

— patent US8461162B2, “Pyrazolo[1,5-a]pyrimidine derivatives” (Merck Sharp & Dohme Corp., priority 2007, dated 2013)
